Tests used:
[1] = test system: Aβ42 produced and secreted into the medium of human neuroblastoma SKNBE2 cells; experiment: Cellular αlisa assay in SKNBE2 cells, Aβ42; assay type: cell-based; settings: Homo sapiens, SKNBE2, 18 h, SKNBE2 cells expressing hAPP695, incubated for 18 hours; read-out: Cellular αlisa assay in SKNBE2 cells Aβ42 pIC50 (converted)
Description: (§1) In two αlisa assays the levels of Aβtotal and Aβ42 produced and secreted into the medium of human neuroblastoma SKNBE2 cells are quantified. The assay is based on the human neuroblastoma SKNBE2 expressing the wild type Amyloid Precursor Protein (hAPP695). The compounds are diluted and added to these cells, incubated for 18 hours and then measurements of Aβ42 and Aβtotal are taken. Aβtotal and Aβ42 are measured by sandwich αlisa. αlisa is a sandwich assay using biotinylated antibody AbN/25 attached to streptavidin coated beads and antibody Ab4G8 or cAb42/26 conjugated acceptor beads for the detection of Aβtotal and Aβ42 respectively. In the presence of Aβtotal or Aβ42, the beads come into close proximity. The excitation of the Donor beads provokes the release of singlet oxygen molecules that triggers a cascade of energy transfer in the Acceptor beads, resulting in light emission. Light emission is measured after 1 hour incubation (excitation at […] and emission at 615 nm).
(§2) A best-fit curve is fitted by a minimum sum of squares method to the plot of % Controlmin versus compound concentration.
(§3) LC=Median of the low control values
(§4) =Low control: cells preincubated without compound, without biotinylated Ab in the αlisa
(§5) HC=Median of the High control values
(§6) =High Control: cells preincubated without compound % Effect=100−[(sample−LC)/(HC−LC)*100] % Control=(sample/HC)*100% % Controlmin=(sample−LC)/(HC−LC)*100

[2] = molecular target: T1, recombinant BACE1 protein (Homo sapiens, UniProt P56817); experiment: Biochemical FRET based assay; settings: recombinant BACE1 1 μg/ml, 10 μm substrate, 120 minutes, room temperature, pH 5.0; read-out: Biochemical FRET based assay pIC50 (converted)
T1 construct: recombinant BACE1 protein in a final concentration of 1 μg/ml
Source text: This assay is a Fluorescence Resonance Energy Transfer Assay (FRET) based assay. The substrate for this assay is an APP derived 13 amino acids peptide that contains the ‘Swedish’ Lys-Met/Asn-Leu mutation of the amyloid precursor protein (APP) β-secretase cleavage site. This substrate also contains two fluorophores: (7-methoxycoumarin-4-yl) acetic acid (Mca) is a fluorescent donor with excitation wavelength at 320 nm and emission at 405 nm and 2,4-Dinitrophenyl (Dnp) is a proprietary quencher acceptor. […] Upon cleavage by BACE1, the fluorophore Mca is separated from the quenching group Dnp, restoring the full fluorescence yield of the donor. The increase in fluorescence is linearly related to the rate of proteolysis (Koike H et al. J. Biochem. 1999, 126, 235-242).
Briefly in a 384-well format recombinant BACE1 protein in a final concentration of 1 μg/ml is incubated for 120 minutes at room temperature with 10 μm substrate in incubation buffer (40 mM Citrate buffer pH 5.0, 0.04% PEG, 4% DMSO) in the absence or presence of compound. Next the amount of proteolysis is directly measured by fluorescence measurement at T=0 and T=120 (excitation at 320 nm and emission at 405 nm).
as §3
=Low control: Reaction without enzyme
as §5
=High Control: Reaction with enzyme % Effect=100−[(sample−LC)/(HC−LC)*100] % Control=(sample/HC)*100% % Controlmin=(sample−LC)/(HC−LC)*100

[3] = test system: Aβtotal produced and secreted into the medium of human neuroblastoma SKNBE2 cells; experiment: Cellular αlisa assay in SKNBE2 cells, Aβtotal; assay type: cell-based; settings: Homo sapiens, SKNBE2, 18 h, SKNBE2 cells expressing hAPP695, incubated for 18 hours; read-out: Cellular αlisa assay in SKNBE2 cells Aβtotal pIC50 (converted)
Description: as §1, §2, §3, §4, §5, §6

brain levels of total Aβ = experiment: In vivo efficacy: brain Aβtotal lowering (ELISA); design: species or system mouse; settings: 30 mpk
Source text: (§7) To determine whether acute administration of an Aβ42 peptide lowering agent would reduce Aβ peptide levels in vivo, non-transgenic rodents, e.g. mice or rats were used. Animals treated with the Aβ peptide lowering agent were examined and compared to those untreated or treated with vehicle and brain levels of soluble Aβ42 and total Aβ were quantitated by standard techniques, for example, using ELISA. Treatment periods varied from hours (h) to days and were adjusted based on the results of the Aβ42 lowering once a time course of onset of effect could be established.
(§8) A typical protocol for measuring Aβ42 lowering in vivo is shown but it is only one of many variations that could be used to optimize the levels of detectable Aβ. For example, Aβpeptide lowering compounds were formulated in 20% hydroxypropyl β cyclodextrin. The Aβ peptide lowering agents were administered as a single oral dose (p.o.) or a single subcutaneous dose (s.c.) to overnight fasted animals. After a certain time, usually 2 or 4 h (as indicated in Table 19), the animals were sacrificed and Aβ42 levels were analysed.
(§9) Blood was collected by decapitation and exsanguinations in EDTA-treated collection tubes. Blood was centrifuged at 1900 g for 10 minutes (min) at 4° C. and the plasma recovered and flash frozen for later analysis. The brain was removed from the cranium and hindbrain. The cerebellum was removed and the left and right hemisphere were separated. The left hemisphere was stored at −18° C. for quantitative analysis of test compound levels. The right hemisphere was rinsed with phosphate-buffered saline (PBS) buffer and immediately frozen on dry ice and stored at −80° C. until homogenization for biochemical assays.
(§10) Mouse brains from non-transgenic animals were resuspended in 8 volumes of 0.4% DEA (diethylamine)/50 mM NaCl containing protease inhibitors (Roche-11873580001 or 04693159001) per gram of tissue, e.g. for 0.158 g brain, add 1.264 ml of 0.4% DEA. All samples were homogenized in the FastPrep-24 system (MP Biomedicals) using lysing matrix D (MPBio #6913-100) at 6 m/s for 20 seconds. Homogenates were centrifuged at 221.300×g for 50 min. The resulting high speed supernatants were then transferred to fresh eppendorf tubes. Nine parts of supernatant were neutralized with 1 part 0.5 M Tris-HCl pH 6.8 and used to quantify Aβtotal and Aβ42.
(§11) To quantify the amount of Aβtotal and Aβ42 in the soluble fraction of the brain homogenates, Enzyme-Linked-Immunosorbent-Assays were used. Briefly, the standards (a dilution of synthetic Aβ1-40 and Aβ1-42, Bachem) were prepared in 1.5 ml Eppendorf tube in Ultraculture, with final concentrations ranging from 10000 to 0.3 pg/ml. The samples and standards were co-incubated with HRPO-labelled N-terminal antibody for Aβ42 detection and with the biotinylated mid-domain antibody 4G8 for Aβtotal detection. 50 μl of conjugate/sample or conjugate/standards mixtures were then added to the antibody-coated plate (the capture antibodies selectively recognize the C-terminal end of Aβ42, antibody JRF/cAβ42/26, for Aβ42 detection and the N-terminus of Aβ, antibody JRF/rAβ/2, for Aβtotal detection). The plate was allowed to incubate overnight at 4° C. in order to allow formation of the antibody-amyloid complex. Following this incubation and subsequent wash steps the ELISA for Aβ42 quantification was finished by addition of Quanta Blu fluorogenic peroxidase substrate according to the manufacturer's instructions (Pierce Corp., Rockford, Il). A reading was performed after 10 to 15 min (excitation 320 nm/emission 420 nm).
For Aβtotal detection, a Streptavidine-Peroxidase-Conjugate was added, followed 60 min later by an additional wash step and addition of Quanta Blu fluorogenic peroxidase substrate according to the manufacturer's instructions (Pierce Corp., Rockford, Il). A reading was performed after 10 to 15 min (excitation 320 nm/emission 420 nm).

[4] = test system: brain levels of soluble Aβ42; experiment: In vivo efficacy: brain Aβ42 lowering (ELISA); design: species or system mouse; settings: 30 mpk
Source text: as §7, §8, §9, §10, §11
In this model at least 20% Aβ42 lowering compared to untreated animals would be advantageous.

T1 sequence (P56817 46-501): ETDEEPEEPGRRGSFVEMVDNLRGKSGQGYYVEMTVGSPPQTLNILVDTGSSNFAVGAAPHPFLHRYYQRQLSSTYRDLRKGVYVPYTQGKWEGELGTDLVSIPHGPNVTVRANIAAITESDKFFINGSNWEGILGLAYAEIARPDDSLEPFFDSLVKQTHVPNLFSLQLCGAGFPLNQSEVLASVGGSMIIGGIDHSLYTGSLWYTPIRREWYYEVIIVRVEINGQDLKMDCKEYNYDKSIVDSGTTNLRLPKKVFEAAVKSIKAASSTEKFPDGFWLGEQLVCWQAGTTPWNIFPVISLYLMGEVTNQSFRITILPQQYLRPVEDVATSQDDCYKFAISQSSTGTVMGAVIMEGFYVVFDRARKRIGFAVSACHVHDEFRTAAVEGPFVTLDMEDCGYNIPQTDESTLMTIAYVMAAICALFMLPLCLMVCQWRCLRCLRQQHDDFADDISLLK

SMILES | IC50 [1] [nM] | IC50 [2] [nM] | IC50 [3] [nM] | Aβtotal (% Ctrl)_Mean (brain levels of total Aβ; p.o., 2 h after administration) [% Ctrl] | Aβtotal (% Ctrl)_Mean (brain levels of total Aβ; s.c., 2 h after administration) [% Ctrl] | Aβ42 (% Ctrl)_Mean ([4]; p.o., 2 h after administration) [% Ctrl] | Aβ42 (% Ctrl)_Mean ([4]; s.c., 2 h after administration) [% Ctrl] | Aβtotal (% Ctrl)_Mean (brain levels of total Aβ; s.c., 4 h after administration) [% Ctrl] | Aβ42 (% Ctrl)_Mean ([4]; s.c., 4 h after administration) [% Ctrl]
COc1cnc(C(=O)Nc2ccc(F)c(C3(C)Cn4ccnc4C(N)=N3)c2)cn1 (single isomer, unassigned) [Compound 9] | 35.5 | 148 | 31.6 | 63 | 49 | 40 | 57 | – | –
CC1(c2cc(NC(=O)c3ccc(F)cn3)ccc2F)Cn2ccnc2C(N)=N1 (single isomer, unassigned) [Compound 10] | 58.9 | 214 | 50.1 | – | 53 | – | 45 | – | –

More lines, main results first:

IC50 [1] [nM] | IC50 [2] [nM] | IC50 [3] [nM] | SMILES | Aβtotal (% Ctrl)_Mean (brain levels of total Aβ; p.o., 2 h after administration) [% Ctrl] | Aβtotal (% Ctrl)_Mean (brain levels of total Aβ; s.c., 2 h after administration) [% Ctrl] | Aβ42 (% Ctrl)_Mean ([4]; p.o., 2 h after administration) [% Ctrl] | Aβ42 (% Ctrl)_Mean ([4]; s.c., 2 h after administration) [% Ctrl] | Aβtotal (% Ctrl)_Mean (brain levels of total Aβ; s.c., 4 h after administration) [% Ctrl] | Aβ42 (% Ctrl)_Mean ([4]; s.c., 4 h after administration) [% Ctrl]
6.31 | – | 5.62 | C[C@@]1(c2cc(NC(=O)c3ccc(C#N)cn3)ccc2F)Cn2ccnc2C(N)=N1 [Compound 18] | 52 | – | 38 | – | – | –
9.33 | 49 | 9.55 | C[C@@]1(c2cc(NC(=O)c3ncc(C#N)cc3Cl)ccc2F)Cn2ccnc2C(N)=N1 [Compound 21] | – | 7 | – | 33 | – | –
38.9 | 132 | 33.9 | C[C@@]1(c2cc(NC(=O)c3ccc(F)cn3)ccc2F)Cn2cc(C(F)(F)F)nc2C(N)=N1 [Compound 24] | – | – | – | – | 67 | 50

Source: patent US9840507B2, “5,6-dihydro-imidazo[1,2-a]pyrazin-8-ylamine derivatives useful as inhibitors of beta-secretase (BACE)” (Janssen Pharmaceutica, NV, priority 2010, dated 2017)
